Test results from patent publication US9884842B2, “Combretastatin analogs” (The Board of Trustees of the University of Arkansas, priority 2013, dated 2018).
Read-outs that look alike come from different tables or passages of the source.

How the values were obtained:
TK-10 = assay: NCI growth inhibition and cytotoxicity screen, Renal Cancer panel; details: Homo sapiens; for GI50: TK-10; for CC50: TK-10, read-out: LC50
MALME-3M = assay: NCI growth inhibition and cytotoxicity screen, Melanoma panel; details: Homo sapiens; for CC50: read-out: LC50
SW-620 = assay: NCI growth inhibition and cytotoxicity screen, Colon Cancer panel; details: Homo sapiens; for GI50: SW-620; for CC50: SW-620, read-out: LC50
HS 578T = assay: NCI growth inhibition and cytotoxicity screen, Breast Cancer panel; details: Homo sapiens; for CC50: read-out: LC50
ACHN = assay: NCI growth inhibition and cytotoxicity screen, Renal Cancer panel; details: Homo sapiens; for CC50: read-out: LC50
MCF7 = assay: NCI growth inhibition and cytotoxicity screen, Breast Cancer panel; details: Homo sapiens; for GI50: MCF7; for CC50: MCF7, read-out: LC50
OVCAR-8 = assay: NCI growth inhibition and cytotoxicity screen, Ovarian Cancer panel; details: Homo sapiens; for GI50: OVCAR-8; for CC50: OVCAR-8, read-out: LC50
NCI-H322M = assay: NCI growth inhibition and cytotoxicity screen, Lung Cancer panel; details: Homo sapiens; for CC50: read-out: LC50
SK-MEL-28 = assay: NCI growth inhibition and cytotoxicity screen, Melanoma panel; details: Homo sapiens; for GI50: SK-MEL-28; for CC50: SK-MEL-28, read-out: LC50
NCI-H460 = assay: NCI growth inhibition and cytotoxicity screen, Lung Cancer panel; details: Homo sapiens; for GI50: NCI-H460; for CC50: NCI-H460, read-out: LC50
M14 = assay: NCI growth inhibition and cytotoxicity screen, Melanoma panel; details: Homo sapiens; for GI50: M14; for CC50: M14, read-out: LC50
OVCAR-4 = assay: NCI growth inhibition and cytotoxicity screen, Ovarian Cancer panel; details: Homo sapiens; for GI50: OVCAR-4; for CC50: OVCAR-4, read-out: LC50
MDA-MB-468 = assay: cells; details: Homo sapiens; for GI50: MDA-MB-468; for CC50: MDA-MB-468, read-out: LC50
SK-MEL-5 = assay: NCI growth inhibition and cytotoxicity screen, Melanoma panel; details: Homo sapiens; for GI50: SK-MEL-5; for CC50: SK-MEL-5, read-out: LC50
[1] = test system: full panel of 60 different cancer cell lines; assay: NCI five dose screen, full panel summary; format: cell-based, human; details: for GI50: Homo sapiens
HCT-15 = assay: NCI growth inhibition and cytotoxicity screen, Colon Cancer panel; details: Homo sapiens; for GI50: HCT-15; for CC50: HCT-15, read-out: LC50
COLO 205 = assay: as above; details: Homo sapiens; for GI50: COLO 205; for CC50: COLO 205, read-out: LC50
KM12 = assay: as above; details: Homo sapiens; for GI50: KM12; for CC50: KM12, read-out: LC50
CAKI-1 = assay: NCI growth inhibition and cytotoxicity screen, Renal Cancer panel; details: Homo sapiens; for GI50: CAKI-1; for CC50: CAKI-1, read-out: LC50
MOLT-4 = assay: NCI growth inhibition and cytotoxicity screen, Leukemia panel; details: Homo sapiens; for GI50: MOLT-4; for CC50: MOLT-4, read-out: LC50
SF-268 = assay: NCI growth inhibition and cytotoxicity screen, CNS Cancer panel; details: Homo sapiens; for GI50: SF-268; for CC50: SF-268, read-out: LC50
786-0 = assay: NCI growth inhibition and cytotoxicity screen, Renal Cancer panel; details: Homo sapiens; for GI50: 786-0; for CC50: 786-0, read-out: LC50
NCI/ADR-RES = assay: NCI growth inhibition and cytotoxicity screen, Ovarian Cancer panel; details: Homo sapiens; for CC50: read-out: LC50
PC-3 = assay: NCI growth inhibition and cytotoxicity screen, Prostate Cancer panel; details: Homo sapiens; for GI50: PC-3; for CC50: PC-3, read-out: LC50
HCT-116 = assay: NCI growth inhibition and cytotoxicity screen, Colon Cancer panel; details: Homo sapiens; for GI50: HCT-116; for CC50: HCT-116, read-out: LC50
HOP-62 = assay: NCI growth inhibition and cytotoxicity screen, Lung Cancer panel; details: Homo sapiens; for GI50: HOP-62; for CC50: HOP-62, read-out: LC50
HT29 = assay: NCI growth inhibition and cytotoxicity screen, Colon Cancer panel; details: Homo sapiens; for GI50: HT-29; for CC50: HT-29, read-out: LC50
UACC-62 = assay: NCI growth inhibition and cytotoxicity screen, Melanoma panel; details: Homo sapiens; for GI50: UACC-62; for CC50: UACC-62, read-out: LC50
SR = assay: NCI growth inhibition and cytotoxicity screen, Leukemia panel; details: Homo sapiens

COc1cc(OC)cc(/C(C#N)=C/c2cnc3ccccc3c2)c1 [PNR-4-85, (Z)-3-(quinolin-3-yl)-2-(3,5-dimethoxyphenyl)acrylonitrile]
GI50 (TK-10): 17700 nM
CC50 (TK-10): > 100000 nM
GI50 (MALME-3M): 635 nM
CC50 (MALME-3M): > 100000 nM
GI50 (SW-620): 352 nM
CC50 (SW-620): > 100000 nM
GI50 (HS 578T): 715 nM
CC50 (HS 578T): > 100000 nM
GI50 (ACHN): 1190 nM
CC50 (ACHN): > 100000 nM
GI50 (MCF7): 333 nM
CC50 (MCF7): > 100000 nM
GI50 (OVCAR-8): 584 nM
CC50 (OVCAR-8): > 100000 nM
GI50 (NCI-H322M): 903 nM
CC50 (NCI-H322M): > 100000 nM
GI50 (SK-MEL-28): 1400 nM
CC50 (SK-MEL-28): > 100000 nM
GI50 (NCI-H460): 362 nM
CC50 (NCI-H460): > 100000 nM
GI50 (M14): 310 nM
CC50 (M14): > 100000 nM
GI50 (OVCAR-4): 1730 nM
CC50 (OVCAR-4): > 100000 nM
GI50 (MDA-MB-468): 217 nM
CC50 (MDA-MB-468): > 100000 nM
GI50 (SK-MEL-5): 249 nM
CC50 (SK-MEL-5): > 100000 nM
GI50 ([1]; range over the potently inhibited cell lines, read-out: GI50 ranging (potently inhibited cancer cell lines)): 53 to 903 nM
GI50 ([1]; read-out: average GI50 value on all the cancer cell lines): 2210 nM
potent growth inhibition on % of the cancer cell lines ([1]; share of the cancer cell lines potently inhibited): 81%
GI50 (HCT-15): 455 nM
CC50 (HCT-15): > 100000 nM
GI50 (COLO 205): 398 nM
CC50 (COLO 205): 89900 nM
GI50 (KM12): 409 nM
CC50 (KM12): > 100000 nM
GI50 (CAKI-1): 223 nM
CC50 (CAKI-1): > 100000 nM
GI50 (MOLT-4): 378 nM
CC50 (MOLT-4): > 100000 nM
GI50 (SF-268): 654 nM
CC50 (SF-268): > 100000 nM
GI50 (786-0): 484 nM
CC50 (786-0): > 100000 nM
GI50 (NCI/ADR-RES): 224 nM
CC50 (NCI/ADR-RES): > 100000 nM
GI50 (PC-3): 506 nM
CC50 (PC-3): > 100000 nM
GI50 (HCT-116): 420 nM
CC50 (HCT-116): > 100000 nM
GI50 (HOP-62): 793 nM
CC50 (HOP-62): > 100000 nM
GI50 (HT29): 362 nM
CC50 (HT29): > 100000 nM
GI50 (UACC-62): 357 nM
CC50 (UACC-62): > 100000 nM

COc1cc(/C=C/c2cc3ccccc3o2)cc(OC)c1OC [Formula (I)(c)]
GI50 (TK-10): 8.4 nM
CC50 (TK-10): > 100000 nM
GI50 (MALME-3M): 0.41 nM
CC50 (MALME-3M): 86300 nM
GI50 (SW-620): 0.44 nM
CC50 (SW-620): > 100000 nM
GI50 (HS 578T): 0.49 nM
CC50 (HS 578T): > 100000 nM
GI50 (ACHN): 0.86 nM
CC50 (ACHN): > 100000 nM
GI50 (MCF7): 0.37 nM
CC50 (MCF7): > 100000 nM
GI50 (OVCAR-8): 2.05 nM
CC50 (OVCAR-8): > 100000 nM
GI50 (NCI-H322M): 15.9 nM
CC50 (NCI-H322M): > 100000 nM
GI50 (SK-MEL-28): 0.83 nM
CC50 (SK-MEL-28): > 100000 nM
GI50 (NCI-H460): 0.41 nM
CC50 (NCI-H460): > 100000 nM
GI50 (M14): 0.47 nM
CC50 (M14): 88400 nM
GI50 (OVCAR-4): 1.15 nM
CC50 (OVCAR-4): > 100000 nM
GI50 (MDA-MB-468): 0.66 nM
CC50 (MDA-MB-468): > 100000 nM
GI50 (SK-MEL-5): 0.34 nM
CC50 (SK-MEL-5): 42000 nM
GI50 (HCT-15): 0.4 nM
CC50 (HCT-15): > 100000 nM
GI50 (COLO 205): 0.4 nM
CC50 (COLO 205): 19500 nM
GI50 (KM12): 0.5 nM
CC50 (KM12): > 100000 nM
GI50 (CAKI-1): 0.58 nM
CC50 (CAKI-1): > 100000 nM
GI50 (MOLT-4): 0.85 nM
CC50 (MOLT-4): > 100000 nM
GI50 (SR): 0.09 nM
CC50 (SR; read-out: LC50): > 100000 nM
GI50 (SF-268): 0.86 nM
CC50 (SF-268): > 100000 nM
GI50 (786-0): 0.85 nM
CC50 (786-0): 79800 nM
GI50 (NCI/ADR-RES): 0.51 nM
CC50 (NCI/ADR-RES): > 100000 nM
GI50 (PC-3): 0.52 nM
CC50 (PC-3): > 100000 nM
GI50 (HCT-116): 0.522 nM
CC50 (HCT-116): 77000 nM
GI50 (HOP-62): 0.77 nM
CC50 (HOP-62): > 100000 nM
GI50 (HT29): 0.37 nM
CC50 (HT29): > 100000 nM
GI50 (UACC-62): 0.5 nM
CC50 (UACC-62): > 100000 nM
